Publication PMC6458850, “CXXC5 mediates growth plate senescence and is a target for enhancement of longitudinal bone growth” (Life Science Alliance, 2019)

Experiments:
[1] = molecular target: GSK3β (human) (Homo sapiens, UniProt P49841); test: GSK3β kinase assay; type: biochemical; conditions: dose–response curve, n = 3; read-out: IC50, in vitro GSK3β activity
Procedure: GSK3β (human) was incubated with 8 mM MOPS (pH 7.0), 0.2 mM EDTA, 20 μM […](p) EDEEE (phospho-GS2 peptide), 10 mM Mg acetate, and [γ-33P-ATP] (specific activity ∼500 cpm/pmol, concentration as required). The reaction was initiated by the addition of the Mg-ATP mixture. After incubation for 40 min at room temperature, the reaction was stopped by addition of 3% phosphoric acid solution. 10 μl of the reaction was then spotted onto a P30 filtermat and washed three times for 5 min in 50 mM phosphoric acid and once in methanol before drying and scintillation counting.

[2] = In vivo pharmacokinetics of KY19382; conditions: SD male rat; for AUC(0-t): 0 to 24 hour
Procedure: Animal studies were approved by the Institutional Animal Care and use committee at KRIBB. Briefly, specific pathogen-free male Sprague−Dawley (SD) rats (10 weeks old, body weight 298−315 g), purchased from Koatech Co. […] Dosing solutions were prepared in dimethylacetamide (DMAC)/polyethylene glycol 400 (PEG400) (20/80, v/v %) for administrations, and administered at dosing volumes of 5 and 10 ml/kg for iv and ip, respectively. A 100 μl aliquot of each plasma sample was prepared, and three volumes of ice-cold acetonitrile containing carbamazepine (internal standard) were added. The mixture was centrifuged at 910 g for 10 minutes, and the supernatant was subjected to LC−MS/MS analysis. Pharmacokinetic parameters were calculated by standard noncompartmental analysis of plasma concentration−time profiles using Kinetica 4.4.1 (Thermo Fisher Scientific, Inc., Woburn, MA, USA). The areas under the plasma concentration−time curves (AUC) were calculated by the linear−trapezoidal method. Systemic plasma clearance (CLP) was calculated as follows: CLP = dose/AUCinf. Terminal elimination half-life (t1/2) was calculated by the following equation: t1/2 = 0.693/λZ where λZ is the terminal disposition rate constant. Volume of distribution at steady state (VSS) was calculated as follows: VSS = dose × AUMCinf/(AUCinf)^2, where AUMCinf is the area under the first moment of the plasma concentration−time curve extrapolated to infinity. Bioavailability (F) was calculated as follows: F (%) = (AUCip/AUCiv)(doseiv/doseip) × 100.
Pharmacokinetic parameters were based on the mean plasma concentration-time profiles of SD male rat (n=3). Pharmacokinetic parameters were obtained by non-compartmental analysis of the plasma concentration-time profiles using KineticaTM 4.4.1 (Thermo Fisher Scientific, Inc., Woburn, MA, USA). AUClast was calculated from 0 to 24 hour. IV, intravenous; IP, intraperitoneal; Tmax, Time to maximum plasm concentration; Cmax, Maximum plasma concentration after intraperitoneal injection; AUC, Area under the curve; CL, clearance; Vss, Volume of distribution at steady state; T1/2, Elimination half-life; F, bioavailability.

[3] = Toxicity observations in mice treated with KY19382 for 10 wk; type: in vivo, mouse; conditions: 0.1 mg/kg i.p. daily for 10 wk
Procedure: Figure S9. The effects of KY19382 on articular cartilage and liver tissues, or weight. Data are shown from mice used in Fig 5J. (A, B) H&E staining of articular cartilage (A) and liver (B) tissues. (C) During treatment, the weights of mice were measured every 5–7 d (mean ± SEM, n = 7∼15). Scale bars, 100 μm.
Cxxc5^−/− mice were established in a previous study ([Kim et al, 2015]). To manipulate growth plate senescence by estrogen, 3-wk-old Cxxc5^+/+ and Cxxc5^−/− male mice received weekly i.m. injections of either 70 μg/kg estradiol (E2) cypionate (Sigma-Aldrich) or vehicle (cottonseed oil) for 3 wk. To investigate the effects of KY19382 treatment on longitudinal bone growth, C57BL/6 male mice were purchased from KOATECH (Gyeonggido, Korea). KY19382 (0.1 mg/kg) was administered daily by i.p. injection to 3- and 7-wk-old mice for 2 wk or to 3-wk-old mice for 10 wk. For BrdU labeling experiments, the mice were i.p. injected with 50 mg/kg BrdU (Sigma-Aldrich) before 24 h to euthanize. All animal procedures were approved by the Institutional Animal Care and Use Committee of Yonsei University (Korea) and conducted based on the guidelines of the Korean Food and Drug Administration.

[4] = system: Various cells; test: Cytotoxicity test (WST-1 cell viability); type: cell-based; conditions: 0.01-100 μM, 24 hours
Procedure: intravenous; IP, intraperitoneal; Tmax, Time to maximum plasm concentration; Cmax, Maximum plasma concentration after intraperitoneal injection; AUC, Area under the curve; CL, clearance; Vss, Volume of distribution at steady state; T1/2, Elimination half-life; F, […]
Table R2. Cytotoxicity test for KY19382 […]
viability was measured using WST-1. The IC50 value was determined from the dose-response […]
This manuscript addresses the role of CXXC5, a negative regulator of Wnt/beta-Catenin signaling, on growth plate senescence and associated longitudinal bone growth.
Authors used a peptide PTD-DBMP, and a small molecule KY19382, which interferes with GSK-3b activity and CXXC5-DVL interaction. Such interference activates Wnt/beta-catenin signaling that delays growth plate senescence, resulting in longitudinal bone growth in mice; thereby proposing CXXC5 as a potential target to enhance longitudinal growth of children at the risk of height retardation. This is a well
(1 picture or pasted object on this page, not shown here)

[5] = Sprague-Dawley, plasma, IP, 5 mg/kg, mean
[6] = Sprague-Dawley, plasma, IV, 1 mg/kg, mean

GSK3β (human), sequence (P49841 whole entry): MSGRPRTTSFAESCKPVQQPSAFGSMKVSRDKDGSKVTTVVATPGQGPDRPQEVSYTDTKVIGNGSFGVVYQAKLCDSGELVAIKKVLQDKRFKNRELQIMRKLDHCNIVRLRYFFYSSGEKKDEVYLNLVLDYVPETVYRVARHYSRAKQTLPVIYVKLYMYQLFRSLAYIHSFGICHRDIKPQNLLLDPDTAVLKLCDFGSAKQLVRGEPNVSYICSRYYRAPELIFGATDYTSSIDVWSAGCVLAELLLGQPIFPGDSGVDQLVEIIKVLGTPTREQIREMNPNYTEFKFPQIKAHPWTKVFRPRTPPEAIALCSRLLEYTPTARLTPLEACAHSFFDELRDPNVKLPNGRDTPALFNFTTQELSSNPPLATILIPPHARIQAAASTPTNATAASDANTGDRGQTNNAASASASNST

CON=C1C(=C2C(=O)Nc3cc(Cl)c(Cl)cc32)Nc2ccccc21 [KY19382, 5,6-dichloroindirubin-3′-methoxime]
IC50 [1]: 0.01 µM
CL ([2]; IP, 5 mg/kg, mean): 7.83 mL/min/kg
bioavailability ([2]; Sprague-Dawley, plasma, intraperitoneal, IP 5 mg/kg vs IV 1 mg/kg, read-out: F (intraperitoneal bioavailability)): 16.7%
Cmax [2, 5]: 463 ng/mL
Tmax [2, 5]: 1 h
half-life [2, 5]: 16.2 h
AUC(0-t) [2, 5]: 6560 ng·h/mL
clearance [2, 6]: 2 mL/min/kg
half-life [2, 6]: 3.33 h
AUC(0-t) [2, 6]: 7830 ng·h/mL
Vd ([2]; Sprague-Dawley, plasma, IV, 1 mg/kg, mean, read-out: Vss): 0.33 L/kg
body weight during treatment [3]: no difference in weight
histology of articular cartilage and liver tissues [3]: no histological abnormalities were detected
cytotoxicity in variety of cell types [4]: does not induce cytotoxicity
